From ChEMBL document CHEMBL1201862, “PubChem BioAssay data set” (2004)
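Interpolation was linear, between the two tested concentrations surrounding the appropriate level; five concentrations were tested over 48 hours in 96-well plates. GI50 = concentration required for 50% inhibition of growth.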 Active and inactive are the calls of the source. Cut-off read from the data, not from the text of the source: active = GI50 up to about 1.1 µM and inactive = higher.

What was measured:
Experiment in all cases: DTP human tumour cell line panel, 48 h
[1] = tested on: NCI-H23
[2] = tested on: SR
[3] = tested on: Malme-3M
[4] = tested on: UACC-62
[5] = tested on: OVCAR-5
[6] = tested on: MOLT-4
[7] = tested on: EKVX
[8] = tested on: M14
[9] = tested on: U-251
[10] = tested on: LXFL 529
[11] = tested on: KM-20L2
[12] = tested on: SW-620
[13] = tested on: COLO 205
[14] = tested on: HT-29
[15] = tested on: SK-MEL-28
[16] = tested on: OVCAR-4
[17] = tested on: KM12
[18] = tested on: OVCAR-8
[19] = tested on: HOP-92
[20] = tested on: IGROV-1
[21] = tested on: SNB-75
[22] = tested on: SK-MEL-5
[23] = tested on: HCT-15
[24] = tested on: HCC 2998
[25] = tested on: SF-268
[26] = tested on: UACC-257
[27] = tested on: SN12C
[28] = tested on: SNB-19
[29] = tested on: SF-539
[30] = tested on: UO-31
[31] = tested on: CCRF-CEM
[32] = tested on: HL-60
[33] = tested on: 786-0
[34] = tested on: SNB-78
[35] = tested on: A549
[36] = tested on: RPMI-8226
[37] = tested on: XF498
[38] = tested on: SF-295
[39] = tested on: DLD-1
[40] = tested on: CAKI-1
[41] = tested on: HOP-62
[42] = tested on: ACHN
[43] = tested on: M19-MEL
[44] = tested on: NCI-H522
[45] = tested on: NCI-H226
[46] = tested on: LOX IMVI
[47] = tested on: DMS-114
[48] = tested on: K562
[49] = tested on: SK-OV-3
[50] = tested on: OVCAR-3
[51] = tested on: SK-MEL-2
[52] = tested on: HCT-116
[53] = tested on: TK-10
[54] = tested on: A498
[55] = tested on: DMS-273
[56] = tested on: NCI-H460
[57] = tested on: RXF 393

c1ccc(C2N=NN(c3ccccc3)C2N2CCCCC2)cc1 (stereo not given)
GI50 [1]: > 100 µM (inactive)
GI50 [2]: > 100 µM (inactive)
GI50 [3]: > 100 µM (inactive)
GI50 [4]: 67 µM (inactive)
GI50 [5]: > 100 µM (inactive)
GI50 [6]: > 100 µM (inactive)
GI50 [7]: > 100 µM (inactive)
GI50 [8]: > 100 µM (inactive)
GI50 [9]: 56 µM (inactive)
GI50 [10]: > 100 µM (inactive)
GI50 [11]: > 100 µM (inactive)
GI50 [12]: > 100 µM (inactive)
GI50 [13]: > 100 µM (inactive)
GI50 [14]: > 100 µM (inactive)
GI50 [15]: > 100 µM (inactive)
GI50 [16]: > 100 µM (inactive)
GI50 [17]: > 100 µM (inactive)
GI50 [18]: > 10 µM (inactive)
GI50 [19]: 17.3 µM (inactive)
GI50 [20]: 52.2 µM (inactive)
GI50 [21]: 20 µM (inactive)
GI50 [22]: > 100 µM (inactive)
GI50 [23]: > 100 µM
GI50 [24]: > 100 µM (inactive)
GI50 [25]: 46.5 µM (inactive)
GI50 [26]: > 100 µM (inactive)
GI50 [27]: > 100 µM (inactive)
GI50 [28]: > 100 µM (inactive)
GI50 [29]: 55.8 µM (inactive)
GI50 [30]: > 100 µM (inactive)
GI50 [31]: > 100 µM (inactive)
GI50 [32]: > 100 µM (inactive)
GI50 [33]: 64.7 µM (inactive)
GI50 [34]: 75 µM (inactive)
GI50 [35]: > 100 µM (inactive)
GI50 [36]: > 100 µM (inactive)
GI50 [37]: 49.5 µM (inactive)
GI50 [38]: 33.8 µM (inactive)
GI50 [39]: > 100 µM (inactive)
GI50 [40]: > 100 µM (inactive)
GI50 [41]: 42.9 µM (inactive)
GI50 [42]: > 100 µM (inactive)
GI50 [43]: > 100 µM (inactive)
GI50 [44]: > 100 µM (inactive)
GI50 [45]: > 100 µM (inactive)
GI50 [46]: > 100 µM (inactive)
GI50 [47]: > 100 µM (inactive)
GI50 [48]: > 100 µM (inactive)
GI50 [49]: 38.6 µM (inactive)
GI50 [50]: > 100 µM (inactive)
GI50 [51]: > 100 µM (inactive)
GI50 [52]: > 100 µM (inactive)
GI50 [53]: > 100 µM (inactive)

C=C1C(=O)OC2/C=C(\C)C3OC3/C=C(/C(=O)OC)C(O)C(OC(=O)C3(C)OC3C)C12 (stereo not given)
GI50 [1]: 1.85 µM (inactive)
GI50 [2]: 0.566 µM (active)
GI50 [3]: 1.52 µM (inactive)
GI50 [4]: 1.01 µM (active)
GI50 [5]: 16.7 µM (inactive)
GI50 [6]: 0.681 µM (active)
GI50 [7]: 2.58 µM (inactive)
GI50 [8]: 1.9 µM (inactive)
GI50 [9]: 4.58 µM (inactive)
GI50 [10]: 1.36 µM (inactive)
GI50 [12]: 0.959 µM (active)
GI50 [13]: 1.27 µM (inactive)
GI50 [14]: 1.65 µM (inactive)
GI50 [15]: 1.52 µM (inactive)
GI50 [16]: 2.88 µM (inactive)
GI50 [17]: 2.95 µM (inactive)
GI50 [18]: 1.25 µM (inactive)
GI50 [19]: 2.86 µM (inactive)
GI50 [20]: 2.3 µM (inactive)
GI50 [21]: 13.5 µM (inactive)
GI50 [22]: 1.31 µM (inactive)
GI50 [23]: 1.53 µM
GI50 [24]: 1.9 µM (inactive)
GI50 [25]: 15.3 µM (inactive)
GI50 [26]: 1.53 µM (inactive)
GI50 [27]: 2.39 µM (inactive)
GI50 [54]: 7.64 µM (inactive)
GI50 [29]: 2.18 µM (inactive)
GI50 [55]: 1.59 µM (inactive)
GI50 [30]: 11.2 µM (inactive)
GI50 [31]: 0.397 µM (active)
GI50 [56]: 5.41 µM (inactive)
GI50 [33]: 1.74 µM (inactive)
GI50 [34]: 1.79 µM (inactive)
GI50 [35]: 15.3 µM (inactive)
GI50 [38]: 13.6 µM (inactive)
GI50 [39]: 1.03 µM (active)
GI50 [57]: 1.02 µM (active)
GI50 [40]: 1.08 µM (active)
GI50 [41]: 17.7 µM (inactive)
GI50 [42]: 3.14 µM (inactive)
GI50 [44]: 0.193 µM (active)
GI50 [45]: 15.1 µM (inactive)
GI50 [46]: 1.76 µM (inactive)
GI50 [47]: 0.435 µM (active)
GI50 [48]: 0.685 µM (active)
GI50 [49]: 13.4 µM (inactive)
GI50 [50]: 2.42 µM (inactive)
GI50 [51]: 2.48 µM (inactive)
GI50 [52]: 1.11 µM (active)
GI50 [53]: 2.74 µM (inactive)

O=C(N/C(=C\c1ccc([N+](=O)[O-])cc1)c1nc2c(O)nc(S)nc2[nH]1)c1ccccc1
GI50 [1]: > 100 µM (inactive)
GI50 [2]: > 100 µM (inactive)
GI50 [3]: > 100 µM (inactive)
GI50 [4]: > 100 µM (inactive)
GI50 [5]: > 100 µM (inactive)
GI50 [6]: 88.7 µM (inactive)
GI50 [7]: > 100 µM (inactive)
GI50 [8]: > 100 µM (inactive)
GI50 [9]: > 100 µM (inactive)
GI50 [10]: 65.2 µM (inactive)
GI50 [11]: > 100 µM (inactive)
GI50 [12]: > 100 µM (inactive)
GI50 [13]: > 100 µM (inactive)
GI50 [14]: > 100 µM (inactive)
GI50 [15]: > 100 µM (inactive)
GI50 [16]: 99.5 µM (inactive)
GI50 [17]: > 100 µM (inactive)
GI50 [18]: > 100 µM (inactive)
GI50 [19]: 43.7 µM (inactive)
GI50 [20]: > 100 µM (inactive)
GI50 [22]: > 100 µM (inactive)
GI50 [23]: > 100 µM
GI50 [24]: > 100 µM (inactive)
GI50 [25]: > 100 µM (inactive)
GI50 [27]: > 100 µM (inactive)
GI50 [28]: > 100 µM (inactive)
GI50 [29]: > 100 µM (inactive)
GI50 [30]: 30.8 µM (inactive)
GI50 [31]: 92.3 µM (inactive)
GI50 [33]: > 100 µM (inactive)
GI50 [34]: > 100 µM (inactive)
GI50 [35]: > 100 µM (inactive)
GI50 [37]: > 100 µM (inactive)
GI50 [38]: > 100 µM (inactive)
GI50 [39]: 53.7 µM (inactive)
GI50 [57]: > 100 µM (inactive)
GI50 [40]: > 100 µM (inactive)
GI50 [42]: > 100 µM (inactive)
GI50 [43]: > 100 µM (inactive)
GI50 [44]: 57.1 µM (inactive)
GI50 [47]: 77.3 µM (inactive)
GI50 [48]: 73.1 µM (inactive)
GI50 [49]: > 100 µM (inactive)
GI50 [50]: > 100 µM (inactive)
GI50 [51]: > 100 µM (inactive)
GI50 [53]: > 100 µM (inactive)
